# In paper PMC13288994, “Identification and characterization of novel chikungunya virus polymerase inhibitors” (Journal of Virology, 2026):
# Where two headings read alike, the source gives them in different places.
# Columns and labels:
# [1] = system: CHIKV-nLuc (181/25 strain); experiment: microbe, parasite or virus in culture; type: cell-based, Chikungunya virus; settings: 5 µM, 384-well format, read 20 h after infection
# [2] = system: VEEV-TC83-nLuc; experiment: microbe, parasite or virus in culture; type: cell-based; settings: read-out: Antiviral potency (EC50 [µM]) VEEV
# [3] = system: SINV-GLuc; experiment: microbe, parasite or virus in culture; type: cell-based; settings: VeroE6 cells; read-out: Antiviral potency (EC50 [µM]) SINV
# [4] = system: HPIV3-nLuc; experiment: microbe, parasite or virus in culture; type: cell-based; settings: VeroE6 cells; read-out: Antiviral potency (EC50 [µM]) HPIV3
# [5] = system: SARS-CoV-2-nLuc; experiment: microbe, parasite or virus in culture; type: cell-based; settings: VeroE6-TMPRSS2 cells; read-out: Antiviral potency (EC50 [µM]) SARS-CoV-2
# [6] = system: RSV A2-L19F; experiment: microbe, parasite or virus in culture; type: cell-based; settings: Hep-2 cells; read-out: Antiviral potency (EC50 [µM]) RSV
# [7] = system: VSV-nLuc; experiment: microbe, parasite or virus in culture; type: cell-based; settings: read-out: Antiviral potency (EC50 [µM]) VSV
# [8] = system: CHIKV-nLuc; experiment: microbe, parasite or virus in culture; type: cell-based, Chikungunya virus; settings: MOI 0.1 FFU/cell, 24 hpi, in-house synthesized compound; read-out: EC50 CHIKV-nLuc, U-2 OS
# [9] = system: CHIKV-nLuc; experiment: microbe, parasite or virus in culture; type: cell-based, Chikungunya virus; settings: MOI 0.1 FFU/cell, 24 hpi, in-house synthesized compound; read-out: EC50 CHIKV-nLuc, NHDF
# [10] = system: U-2 OS cells; experiment: Cytotoxicity assay (PrestoBlue, 24 h) in U-2 OS cells; type: cell-based, Human
# [11] = system: NHDF cells; experiment: Cytotoxicity assay (PrestoBlue, 24 h) in NHDF cells; type: cell-based, Human
# Protocol: NHDF cells were seeded at 10,000 cells per well in 24-well plates and cultured for 24 h. Cells were then treated with threefold serial dilutions of compounds starting at 500 µM and incubated for 24 h. DMSO was included as a negative control for normalization. Following treatment, cells were incubated with PrestoBlue reagent (ThermoFisher Scientific) for 1 h at 37°C, and fluorescence was measured using a PerkinElmer Victor X5 multilabel plate reader. The CC50 values were determined by normalized non-linear regression with a variable slope model in Prism (GraphPad).
# [12] = system: CHIKV 181/25; experiment: Virus yield dose-response in U-2 OS cells, CHIKV; type: cell-based, Chikungunya virus
# [13] = system: ONNV; experiment: organism not typed; type: cell-based, o'nyong-nyong virus; settings: read-out: EC50 virus production, ONNV
# [14] = system: RRV; experiment: microbe, parasite or virus in culture; type: cell-based, Ross River virus; settings: read-out: EC50 virus production, RRV
# [15] = system: SINV; experiment: microbe, parasite or virus in culture; type: cell-based, Sindbis virus; settings: read-out: EC50 virus production, SINV
# [16] = system: MAYV; experiment: microbe, parasite or virus in culture; type: cell-based, Mayaro virus; settings: read-out: EC50 virus production, MAYV
# [17] = system: SFV; experiment: microbe, parasite or virus in culture; type: cell-based, Semliki Forest virus; settings: read-out: EC50 virus production, SFV
# [18] = target: T1, CHIKV trans-replicase (P1234) (Chikungunya virus, UniProt Q8JUX6); experiment: Trans-replicase assay, CHIKV; type: cell-based; settings: 100 µM, U-2 OS, 20 h
# T1 construct: expression of the P1234 polyprotein drives replication of a reporter RNA template; expressed in transfected cells; host or cells: U-2 OS
# Protocol: (§1) U-2 OS cells were seeded at 75,000 cells per well in 24-well plates and cultured for 24 h. Cells were then co-transfected with 250 ng of plasmid encoding template RNA and 250 ng of plasmid encoding P1234 WT ([72], [73]), using Lipofectamine LTX with PLUS reagent (ThermoFisher Scientific) following the manufacturer’s instructions. After 4 h of post-transfection, medium containing 100 µM of compounds or DMSO was added to the cells. Cells were then incubated for 20 h, lysed, and GLuc activity was quantified using the Dual-Luciferase Reporter Assay System (Promega). Luciferase activities were normalized to those of the DMSO-treated controls.
# [19] = target: T2, ONNV trans-replicase (P1234) (O'nyong-nyong virus, UniProt P13886); experiment: Trans-replicase assay, ONNV; type: cell-based; settings: 100 µM, U-2 OS, 20 h
# T2 construct: expression of the P1234 polyprotein drives replication of a reporter RNA template; expressed in transfected cells; host or cells: U-2 OS
# Protocol: as §1
# [20] = target: T3, RRV trans-replicase (P1234) (Ross river virus, UniProt P13887); experiment: Trans-replicase assay, RRV; type: cell-based; settings: 100 µM, U-2 OS, 20 h
# T3 construct: expression of the P1234 polyprotein drives replication of a reporter RNA template; expressed in transfected cells; host or cells: U-2 OS
# Protocol: as §1
# [21] = target: T4, SINV trans-replicase (P1234) (Sindbis virus, UniProt P03317); experiment: Trans-replicase assay, SINV; type: cell-based; settings: 100 µM, U-2 OS, 20 h
# T4 construct: expression of the P1234 polyprotein drives replication of a reporter RNA template; expressed in transfected cells; host or cells: U-2 OS
# Protocol: as §1
# [22] = target: T5, SFV trans-replicase (P1234) (Semliki forest virus, UniProt P08411); experiment: Trans-replicase assay, SFV; type: cell-based; settings: 100 µM, U-2 OS, 20 h
# T5 construct: expression of the P1234 polyprotein drives replication of a reporter RNA template; expressed in transfected cells; host or cells: U-2 OS
# Protocol: as §1
# [23] = target: T6, BFV trans-replicase (P1234) (Barmah forest virus, UniProt P87515); experiment: Trans-replicase assay, BFV; type: cell-based; settings: 100 µM, U-2 OS, 20 h
# T6 construct: expression of the P1234 polyprotein drives replication of a reporter RNA template; expressed in transfected cells; host or cells: U-2 OS
# Protocol: as §1
# [24] = target: EEEV trans-replicase (P1234) (Eastern equine encephalitis virus, UniProt Q306W6); type: cell-based
# [25] = target: WEEV trans-replicase (P1234) (Western equine encephalitis virus, UniProt P13896); type: cell-based
# [26] = target: VEEV trans-replicase (P1234) (Venezuelan equine encephalitis virus, UniProt P36328); type: cell-based
# [27] = system: EILV trans-replicase (P1234); experiment: Trans-replicase assay, EILV; type: cell-based, Eilat virus; settings: 100 µM, U-2 OS, 20 h
# Protocol: as §1
# [28] = system: CHIKV-nLuc; type: cell-based, Chikungunya virus; settings: 20 µM, U-2 OS, reporter read at 24 h
# [29] = system: CHIKV replicon; settings: read-out: Antiviral potency (EC50 [µM]) CHKV replicon; replicon cells
# [30] = system: VeroE6 cells
# [31] = system: U-2 OS cells
# T3 sequence (P13887 1-2479 limits assumed): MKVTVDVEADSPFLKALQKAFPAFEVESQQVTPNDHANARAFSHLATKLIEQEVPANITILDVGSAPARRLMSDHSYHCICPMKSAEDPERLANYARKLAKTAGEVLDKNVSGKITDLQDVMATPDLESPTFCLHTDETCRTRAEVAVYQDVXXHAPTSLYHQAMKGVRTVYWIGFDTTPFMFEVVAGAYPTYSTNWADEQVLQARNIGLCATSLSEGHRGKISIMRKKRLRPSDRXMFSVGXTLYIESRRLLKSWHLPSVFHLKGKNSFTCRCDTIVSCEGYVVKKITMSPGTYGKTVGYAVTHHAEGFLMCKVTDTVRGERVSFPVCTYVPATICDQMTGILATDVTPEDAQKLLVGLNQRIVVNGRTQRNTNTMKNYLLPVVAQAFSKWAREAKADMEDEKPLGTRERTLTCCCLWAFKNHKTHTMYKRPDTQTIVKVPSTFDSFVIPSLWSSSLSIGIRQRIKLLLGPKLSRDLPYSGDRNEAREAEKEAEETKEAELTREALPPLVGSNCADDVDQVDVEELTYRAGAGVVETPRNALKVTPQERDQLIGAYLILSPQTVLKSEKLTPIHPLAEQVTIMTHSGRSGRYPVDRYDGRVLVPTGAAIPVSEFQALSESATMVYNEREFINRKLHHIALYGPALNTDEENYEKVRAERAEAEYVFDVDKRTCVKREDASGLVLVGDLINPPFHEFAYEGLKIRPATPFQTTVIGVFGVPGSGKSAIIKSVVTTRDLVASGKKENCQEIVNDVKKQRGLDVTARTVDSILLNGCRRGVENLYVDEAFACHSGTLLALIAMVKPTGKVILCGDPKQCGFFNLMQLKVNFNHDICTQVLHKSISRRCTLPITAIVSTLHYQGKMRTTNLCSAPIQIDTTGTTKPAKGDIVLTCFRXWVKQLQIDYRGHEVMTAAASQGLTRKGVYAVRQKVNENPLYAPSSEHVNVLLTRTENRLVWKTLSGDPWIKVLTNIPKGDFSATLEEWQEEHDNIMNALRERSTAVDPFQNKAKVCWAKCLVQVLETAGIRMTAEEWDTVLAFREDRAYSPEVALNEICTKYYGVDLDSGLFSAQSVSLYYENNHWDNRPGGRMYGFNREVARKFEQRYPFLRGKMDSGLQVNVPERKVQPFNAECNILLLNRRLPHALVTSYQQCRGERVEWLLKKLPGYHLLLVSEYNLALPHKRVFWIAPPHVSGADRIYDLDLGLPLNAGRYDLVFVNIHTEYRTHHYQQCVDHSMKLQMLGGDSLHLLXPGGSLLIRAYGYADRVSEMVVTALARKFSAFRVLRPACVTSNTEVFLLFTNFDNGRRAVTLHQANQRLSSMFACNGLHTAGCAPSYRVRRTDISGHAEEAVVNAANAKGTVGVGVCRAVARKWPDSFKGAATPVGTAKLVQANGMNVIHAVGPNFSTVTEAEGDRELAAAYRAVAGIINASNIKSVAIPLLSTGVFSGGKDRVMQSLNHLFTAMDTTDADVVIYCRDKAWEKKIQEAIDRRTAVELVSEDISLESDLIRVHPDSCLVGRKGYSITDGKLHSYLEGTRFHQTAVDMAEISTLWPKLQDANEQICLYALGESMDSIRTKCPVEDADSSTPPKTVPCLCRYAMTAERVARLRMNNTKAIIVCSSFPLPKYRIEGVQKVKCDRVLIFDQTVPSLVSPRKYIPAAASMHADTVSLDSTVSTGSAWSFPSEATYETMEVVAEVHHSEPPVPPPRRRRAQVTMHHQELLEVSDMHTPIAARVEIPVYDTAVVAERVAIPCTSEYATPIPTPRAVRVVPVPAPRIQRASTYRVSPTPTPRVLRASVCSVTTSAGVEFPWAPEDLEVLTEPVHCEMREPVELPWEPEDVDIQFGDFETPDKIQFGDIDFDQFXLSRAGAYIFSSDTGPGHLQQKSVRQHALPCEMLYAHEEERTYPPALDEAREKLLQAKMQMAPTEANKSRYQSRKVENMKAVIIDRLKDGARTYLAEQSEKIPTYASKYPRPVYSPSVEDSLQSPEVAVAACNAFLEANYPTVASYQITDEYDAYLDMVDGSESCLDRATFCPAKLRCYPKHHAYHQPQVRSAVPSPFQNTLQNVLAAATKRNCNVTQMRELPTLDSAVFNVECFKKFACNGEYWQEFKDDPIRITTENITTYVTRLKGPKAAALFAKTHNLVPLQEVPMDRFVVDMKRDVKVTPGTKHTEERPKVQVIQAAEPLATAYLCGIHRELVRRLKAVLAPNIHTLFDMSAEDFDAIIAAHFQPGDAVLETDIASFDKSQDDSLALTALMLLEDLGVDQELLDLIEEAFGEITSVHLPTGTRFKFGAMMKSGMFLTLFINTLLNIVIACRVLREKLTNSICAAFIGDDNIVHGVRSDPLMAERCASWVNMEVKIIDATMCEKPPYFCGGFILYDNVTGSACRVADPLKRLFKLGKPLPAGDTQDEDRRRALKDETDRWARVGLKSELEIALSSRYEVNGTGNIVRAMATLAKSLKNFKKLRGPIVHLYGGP
# T3 sequence (P13887 1-533 partner limits assumed): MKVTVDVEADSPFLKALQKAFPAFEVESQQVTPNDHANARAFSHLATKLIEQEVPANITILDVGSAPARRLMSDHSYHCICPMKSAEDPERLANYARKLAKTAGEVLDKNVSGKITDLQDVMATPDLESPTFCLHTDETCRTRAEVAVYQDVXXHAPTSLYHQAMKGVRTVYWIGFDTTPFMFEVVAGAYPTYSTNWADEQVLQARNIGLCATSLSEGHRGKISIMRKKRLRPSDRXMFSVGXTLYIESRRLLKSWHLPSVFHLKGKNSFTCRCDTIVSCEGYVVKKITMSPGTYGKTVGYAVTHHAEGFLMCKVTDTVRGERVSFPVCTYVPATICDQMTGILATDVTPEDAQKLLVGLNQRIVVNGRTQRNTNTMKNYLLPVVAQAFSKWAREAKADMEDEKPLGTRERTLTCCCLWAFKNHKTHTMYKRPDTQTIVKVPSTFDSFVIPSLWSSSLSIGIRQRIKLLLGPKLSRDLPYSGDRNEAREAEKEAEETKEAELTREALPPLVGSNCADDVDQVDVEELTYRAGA
# T3 sequence (P13887 534-1331 partner limits assumed): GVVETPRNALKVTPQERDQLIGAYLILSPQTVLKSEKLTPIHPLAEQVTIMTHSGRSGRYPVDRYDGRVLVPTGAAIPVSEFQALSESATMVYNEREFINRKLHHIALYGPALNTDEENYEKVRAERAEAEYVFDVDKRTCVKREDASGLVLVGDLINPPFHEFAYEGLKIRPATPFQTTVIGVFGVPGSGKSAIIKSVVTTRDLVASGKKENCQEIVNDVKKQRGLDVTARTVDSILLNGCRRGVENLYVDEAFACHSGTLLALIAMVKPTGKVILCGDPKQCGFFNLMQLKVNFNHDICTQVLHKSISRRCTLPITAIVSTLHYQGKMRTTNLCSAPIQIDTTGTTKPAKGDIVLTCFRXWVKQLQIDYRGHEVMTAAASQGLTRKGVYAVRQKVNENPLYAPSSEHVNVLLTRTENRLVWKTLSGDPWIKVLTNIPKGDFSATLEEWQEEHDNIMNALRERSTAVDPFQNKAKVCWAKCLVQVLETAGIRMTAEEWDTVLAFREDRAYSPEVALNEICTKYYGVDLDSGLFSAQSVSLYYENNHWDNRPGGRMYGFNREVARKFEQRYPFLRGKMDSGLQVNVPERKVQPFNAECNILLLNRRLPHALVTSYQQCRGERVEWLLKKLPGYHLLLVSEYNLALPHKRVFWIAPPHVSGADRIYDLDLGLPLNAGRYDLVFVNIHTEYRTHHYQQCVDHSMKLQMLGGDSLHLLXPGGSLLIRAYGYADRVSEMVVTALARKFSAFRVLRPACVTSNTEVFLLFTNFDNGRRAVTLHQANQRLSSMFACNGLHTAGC
substance,measurement,setting,value
"N-[2-(4-fluorophenyl)ethyl]-1,5-dimethyl-N-[(2-methylpyrazol-3-yl)methyl]pyrazole-4-sulfonamide [GAP-1146924]",Normalized percent inhibition in primary screen,[1],91.8%
same,EC50,[2],35.2 µM
same,EC50,[3],> 100 µM
same,EC50,[4],> 100 µM
same,EC50,[5],> 100 µM
same,EC50,[6],> 10 µM
same,EC50,[7],> 100 µM
same,EC50,[8],23.4 ± 2.44 µM
same,EC50,[9],9.33 µM
same,CC50,[10],> 500 µM
same,CC50,[11],> 500 µM
same,EC50,"[12]; MOI 0.1, supernatant 24 hpi titered by FFA (Fig. 5), read-out: EC50 virus production, CHIKV",16.5 ± 3.99 µM
same,EC50,"[12]; resistance study (Fig. 7), read-out: EC50 virus production, CHIKV WT",19.7 ± 7.78 µM
same,EC50,[13],6.09 ± 2.2 µM
same,EC50,[14],> 100 µM
same,EC50,[15],> 100 µM
same,EC50,[16],13 ± 5.14 µM
same,EC50,[17],> 100 µM
same,"Effect on RNA replication (GLuc) in trans-replicase assay, CHIKV",[18],inhibited RNA replication
same,"Effect on RNA replication (GLuc) in trans-replicase assay, ONNV",[19],inhibited RNA replication
same,"Effect on RNA replication (GLuc) in trans-replicase assay, RRV",[20],some GAP-1146924 inhibition
same,"Effect on RNA replication (GLuc) in trans-replicase assay, SINV",[21],some GAP-1146924 inhibition
same,"Effect on RNA replication (GLuc) in trans-replicase assay, SFV",[22],some GAP-1146924 inhibition
same,"Effect on RNA replication (GLuc) in trans-replicase assay, BFV",[23],inhibited RNA replication
same,"Effect on RNA replication (GLuc) in trans-replicase assay, EEEV",[24],some inhibition
same,"Effect on RNA replication (GLuc) in trans-replicase assay, WEEV",[25],some inhibition
same,"Effect on RNA replication (GLuc) in trans-replicase assay, VEEV",[26],some inhibition
same,"Effect on RNA replication (GLuc) in trans-replicase assay, EILV",[27],some inhibition
same,Time-of-addition profile (stage of replication targeted),[28],act on a stage after viral entry
same,EC50,[29],9.2 µM
same,CC50,[30],> 100 µM
same,CC50,[31],> 100 µM
